Reference: US20100035907A1, “NEW 2,4-DIANILINOPYRIMIDINES, PREPARATION THEREOF AS DRUGS, PHARMACEUTICAL COMPOSITIONS AND USE THEREOF ESSENTIALLY AS IKK INHIBITORS” (Sanofi-aventis, priority 2007, published 2010)

| SMILES | melting point [°C] |
| --- | --- |
| Cc1cc(Nc2ccnc(Nc3ccc(C(=O)N(C)C4CCCN(CCCC(F)(F)F)C4)cc3)n2)ccc1F (centres unmarked) [Example 2, 4-[4-(4-Fluoro-3-methylphenylamino)pyrimidin-2-ylamino]-N-methyl-N-[1-(4,4,4-trifluorobutyl)piperidin-3-yl]benzamide] | 100 to 110 |
| Cc1cc(Nc2ccnc(Nc3ccc(C(=O)N(C)C4CCCN(Cc5csnn5)C4)cc3)n2)ccc1F (centres unmarked) [Example 3, 4-[4-(4-Fluoro-3-methylphenylamino)pyrimidin-2-ylamino]-N-methyl-N-[1-(1,2,3-thiadiazol-4-ylmethyl)piperidin-3-yl]benzamide] | 125 to 130 |
| CN1CCC(N(C)C(=O)c2ccc(Nc3nccc(Nc4ccc(C(F)(F)F)cc4)n3)cc2)CC1 [Example 4, N-Methyl-N-(1-methylpiperidin-4-yl)-4-[4-(4-(trifluoromethyl)phenylamino)pyrimidin-2-ylamino]benzamide] | 238 to 244 |
| CN(C(=O)c1ccc(Nc2nccc(Nc3ccc(C(F)(F)F)cc3)n2)cc1)C1CCOCC1 [Example 5, N-Methyl-N-(tetrahydropyran-4-yl)-4-[4-(4-(trifluoromethyl)phenylamino)pyrimidin-2-ylamino]benzamide] | 254 to 256 |
| CN(C(=O)c1ccc(Nc2nccc(Nc3ccc(F)cc3)n2)cc1)C1CCN2CCCC2C1 (centres unmarked) [Example 7] | 230 to 235 |
